US11547722B2, “Bactericides and antifungal agents” (priority 2017, dated 2023)
Values after ≈ are worked out from the molar mass of the structure shown. Where two headings read alike, the source gives them in different places.

Legend:
[1] = test system: MSSA (Meticillin Sensitive Staphylococcus aureus, ATCC 29213); experiment: MIC test on MSSA bacteria (serial two-fold dilution, 96-well plate)
[2] = test system: MRSA (Meticillin Resistant Staphylococcus aureus, ATCC 43300); experiment: MIC test on MRSA bacteria (serial two-fold dilution, 96-well plate)
[3] = Aqueous solubility of metal sulfides without and with solubilizing additive
Experimental: Mix the 90 mL of the SO4Cu solution with 10 mL of the Na2S solution. […] Separate it by filtration.
Place this precipitate in 100 mL of water in a stirred container.
With constant stirring, drop a very concentrated solution of NH3 into the water very slowly.
Mix the 97 mL of the NO3Ag solution with 3 mL of the Na2S solution. […] Separate it by filtration.
With constant stirring, drop very slowly a concentrated solution of ammonium citrate (NH4)5(C6H4O7)2H3.
Dissolve 77 mg of Cl3Au in 95 mL of water. Mix the 95 mL of the Cl3Au solution with 5 mL of the Na2S solution. […] Separate it by filtration.
While stirring constantly, drop a very concentrated solution of potassium dichromate very slowly.

[4] = aqueous solutions, 24 h at 37° C.

Compound: Cc1onc(-c2ccccc2)c1C(=O)N[C@@H]1C(=O)N2[C@@H]1SC(C)(C)[C@@H]2C(=O)O [Oxacilline, reference compound]
- MIC ([1]; Staphylococcus aureus, 24 h, read-out: MIC MSSA): 0.25 µg/mL (≈ 0.623 µM)
- MIC ([2]; Staphylococcus aureus, 24 h, read-out: MIC MRSA): 256 µg/mL (≈ 638 µM)

Compound: [Au+3].[Au+3].[S-2].[S-2].[S-2] [S3Au2, gold sulfide]
- aqueous Au concentration reached ([3]; addition of potassium dichromate alone or an equimolar mixture of potassium dichromate and ammonia): at least 0.2 g/l
- aqueous concentration in Au reached ([3]; addition of potassium dichromate, or potassium dichromate and ammonia, Example 3): at least 0.2 g.l^−1
- maximum concentration in aqueous solution ([3]; without additive): undetectable
- maximum concentration in water ([3]; without additive, Examples 1 and 3): undetectable

Compound: O=S(=O)([O-])[O-].[Cu+2] [V, copper sulfate]
- MIC MSSA [1, 4]: 78 µg/mL
- MIC MRSA [2, 4]: 78 to 157 µg/mL

Compound: copper sulfide [SCu]
- aqueous concentration in Cu reached [3]: at least 0.2 g.l^−1
- aqueous concentration of Cu reached [3]: ≥ 0.2 g/L
- maximum concentration in aqueous solution [3]: 0.33 mg/L
- maximum concentration in water [3]: 0.33 mg/L
